According to patent US20220168329A1, “COMBINATORIAL DRUG TREATMENT OF CANCER” (University of Virginia Patent Foundation, priority 2019, published 2022):
pIC50: −log10 of the molar value.

How the values were obtained:
[1] = test system: PRMT5; experiment: Western blot of global SDMA in cells; type: cell-based, Human; settings: increasing concentrations (nM)
Experimental: (§1) Cells were washed with cold PBS and lysed in RIPA buffer (Cell Signaling Technology). After centrifugation at 14,000 rpm for 15 minutes at 4° C., the supernatants were collected and the protein concentrations were measured using BCA protein assay reagent (BIO-RAD). Subsequently, equal amounts of proteins were separated in NuPAGE 4-12% Bis-Tris gradient gel (Invitrogen #NP0335) and transferred onto nitrocellulose membranes (Invitrogen #B301002). After blocking with 5% milk, the membranes were then probed at 4° C. overnight with various primary antibodies: anti-γ-H2AX (Cell Signaling), anti-phospho-Chk1 (Ser345) (Cell Signaling), anti-phospho-Chk2 (Thr68) (Cell Signaling), anti-PRMT5 (Abcam), anti-RPA1 (Abcam), anti-phospho-RPA2 (S4/S8) (Bethyl Laboratories), anti-RPA2 (Ab-2) (Calbiochem), cleaved caspase-3 (Cell Signaling), and anti-β-actin (Sigma); washed with TBST (20 mM Tris, 150 mM NaCl, 0.1% polysorbate 20; pH 7.6); and incubated with horseradish peroxidase (HRP)-conjugated secondary antibodies (Promega) at room temperature for 1 hour. Finally, after washing with TBST, the antibody-bound membranes were treated with enhanced chemiluminescent Western blot detection reagents (GE Healthcare) and visualized with an x-ray film (GE Healthcare).

[2] = test system: WT and PRMT5 KO cells; experiment: Western blot of Caspase-3 cleavage (apoptosis) in WT and PRMT5 KO cells; type: cell-based, Human; settings: WT vs PRMT5 KO cells, increasing doses (nM)
Experimental: as §1

[3] = test system: HeLa DR13-9 cell line; experiment: I-SceI reporter assay, homology-directed repair (HDR); type: cell-based, Human; settings: Gem 250 nM and/or EPZ015666 500 nM, 24 hours
Experimental: (§2) NHEJ and HR assays to examine the repair efficiency of I-SceI inducible-double strand breaks (DSBs) were performed using NHEJ/DsRed293B and HeLa DR13-9 cell lines, respectively, as previously described with slight modifications. Briefly, 3×10^5 cells were plated on 6-well dishes and 2 μg I-SceI expression vector […] was transfected using Lipofectamine2000 (Invitrogen). 24 hours post-transfection, the indicated amount of gemcitabine and/or EPZ015666 was incubated with cells for 24 hours. The DsRed- and GFP-expressing cells were counted in flow cytometric analysis (BD FACS Calibur and CellQuest Pro) by the FL2 and FL1 channels for NHEJ and HR repair efficiency, respectively. […] To this end, we used I-SceI endonuclease-based genetic reporters where relative efficiency of DSB repair by either pathway could be robustly quantified. […] However, exogenous expression of I-SceI leads to a DSB repair and creation of either dsRED+ or GFP+ cells, which can be quantified to assess relative NHEJ or HDR repair efficiencies by quantifying the percentage of dsRED+ or GFP+ cells upon I-SceI expression. […] We then assessed whether PRMT5 inhibitor alone or in combination with Gem results in differential NHEJ activity. […]

[4] = test system: NHEJ/DsRed293B cell line; experiment: I-SceI reporter assay, NHEJ; type: cell-based, Human; settings: Gem 250 nM and/or EPZ015666 500 nM, 24 hours
Experimental: as §2

[5] = test system: xenograft tumors; experiment: γ-H2AX and SDMA levels in extracted tumor tissues (IHC, Western blot); type: in vivo, mice
Experimental: as §1, with “Healthcare). We also extracted tumors to analyze their morphology and molecular structure through H&E and IHC for selected markers. […] To assess whether the combination treatment abolished PRMT5 function in vivo, we evaluated the overall levels of the γ-H2AX and the symmetric […] of arginine (SDMA) in WT tumors, PRMT5 KO tumors as well as single-agent and combination-treated WT tumors.” for “Healthcare).”

[6] = test system: WT and PRMT5 knockout (KO) PDAC cells (mPanc96, PANC-1); experiment: MTT cell viability assay, WT vs PRMT5 KO clones; type: cell-based; settings: Homo sapiens
Experimental: PDX366, mPanc96, and PANC-1 cells were seeded in a flat-bottom 96-well plate (Corning) in triplicate at a density of 1-2×10^3 cells per well. The following day, cells were treated with gemcitabine (GEMZAR; Eli Lilly) and EPZ015666 (GSK3235025; SelleckChem) or EPZ015938 (GSK3326595; ChemieTek) for 4-5 days prior to MTT (3-(4,5-dimethylthiazolyl)-2,5-diphenyltetrazolium bromide) to determine effects of drugs on cell viability. Culture media were replaced with fresh RPMI, which had 10% FBS and 10% MTT (5 mg/mL) and incubated for 4 hours in a humidified (37° C., 5% CO2) incubator. 100 μL MTT solvent (10% SDS in 0.01 M HCl) was added to each well, and cells were incubated overnight. The absorbance was read at 595 nm.
To better study the role of PRMT5 in the cellular response to Gem, we generated multiple single KO clones in two additional pancreatic cancer cell lines (mPanc96 and PANC-1) (FIG. 2A). […] However, the clones with even partial PRMT5 depletion were nearly an order of magnitude more sensitive to Gem compared to wild-type (WT) clones (4-5 μM vs. ˜50 μM IC50) as measured by cell viability assay (FIG. 2B).

[7] = test system: mPanc96 and PANC-1 cells; experiment: Crystal violet colony formation assay; type: cell-based, Human
Experimental: Pancreatic cancer cells were seeded in a flat-bottom 12-well plate (Corning) at a density of 1-2×10^3 cells per well. The following day, cells were treated with gemcitabine and EPZ015666 or EPZ015938 for two weeks. Culture media were replaced every week with fresh medium in the presence of drugs. Wells were washed with PBS, then stained for 30 min with crystal violet solution (0.4% crystal violet, 10% formaldehyde, 80% methanol). After staining, wells were washed once with PBS and water. The plate was dried out overnight and imaged using a scanner. Colonies were measured and analyzed with ImageJ (National Institutes of Health).

[8] = test system: Pancreatic cancer cells; experiment: BrdU incorporation flow cytometry cell cycle analysis; type: cell-based, Human; settings: Gem 250 nM
Experimental: Pancreatic cancer cells were treated with gemcitabine and EPZ015666 or EPZ015938, incorporated with BrdU (Sigma) for 1 hour and then fixed by 70% ethanol. BrdU staining was performed according to the manufacturer's instructions (BD Biosciences, Franklin Lakes, N.J., USA). Briefly, the fixed cells were washed with PBS and then resuspended in 2 N HCl for 20 min to denature the DNA. After washing with 0.1 M Na2B4O7, pH 8.5, to stop acid denaturation, the cells were resuspended and washed with 180 μL 0.5% polysorbate 20 (Sigma) with 1% normal goat serum (NGS) (Dako, Glostrup, Denmark) in PBS. Then, the cells were incubated with Alexa Fluor 647-conjugated anti-BrdU (mAb) (Invitrogen) for 1 hour at room temperature in the dark. After washing with PBS, the cells were resuspended in 2 μg/mL propidium iodide (PI) (Sigma) in PBS plus RNase, incubated at 37° C. for 30 min in the dark, and then analyzed by FACSCalibur flow cytometer (Becton-Dickinson, San Jose, Calif., USA).

[9] = test system: PDAC cells; experiment: Western blot of DNA damage and cell cycle checkpoint markers and RPA2; type: cell-based, Human; settings: time-course, KO cells compared to WT cells
Experimental: as §1

[10] = test system: mPanc96 cells; experiment: γ-H2AX immunofluorescence staining; type: cell-based, Human
Experimental: Cells grown on glass coverslips (VWR) were rinsed with PBS, and then fixed in 4% formaldehyde for 15 min. The cells were subsequently treated with 0.2% Triton X-100 in PBS for 10 min. After blocking with 2% BSA in PBS containing 5% FBS at RT for 30 minutes, cells were incubated with an appropriate primary antibody γ-H2AX (Cell Signaling) for 2 hours. Then the cells were washed with PBS and incubated for 1 hour with secondary antibody [Alexa Fluor-488 goat anti-mouse immunoglobulin G (IgG) (H+L) conjugate or anti-rabbit IgG (H+L) conjugate (Invitrogen)]. After washing with PBS, the coverslips were dried, and then reversely covered onto slides (Fisher Scientific) by adding mounting medium with 4′,6-diamidino-2-phenylindole dihydrochloride (DAPI) (Vector Laboratories). A LSM-710 confocal microscope (Zeiss) was used to obtain fluorescence images.

[11] = test system: mPanc96 cells; experiment: Comet assay (DNA strand breaks); type: cell-based, Human; settings: PRMT5 KO or PRMT5-inhibited cells treated with Gem vs WT and control-treated cells
Experimental: The comet assay measures DNA damage in individual cells. It was performed according to the instructions of the OxiSelect Comet Assay Kit (Cell Biolabs). Briefly, microscope slides were first covered with a normal melting point agarose to create a base layer. Then, 1-2×10^5 cells were embedded into 75 μL of low-melting-point agarose at 37° C. and the gel was cast over the first agarose layer. Then slides were immersed into a lysis buffer and kept for 1 hour at 4° C. After cell lysis, the slides were electrophoresed in alkaline electrophoresis buffer (300 mM NaOH, 1 mM EDTA, pH 13). The slides were then stained with Vista Green DNA dye. Comet tails were measured using Image J.

[12] = test system: WT and PRMT5 KO mPanc96 tumors; experiment: Xenograft of WT and PRMT5 KO mPanc96 cells treated with Gem; type: in vivo, nude mice; settings: Gem 50 mg/kg or 100 mg/kg i.p.
Experimental: To develop xenograft tumors, Control sgRNA infected WT cells and PRMT5-KO cells were subcutaneously injected into the dorsal flanks of 8 week-old nude mice, which were obtained from the Jackson Laboratory (Bar Harbor, Me., USA). When the tumors were visible (approximately 30 mm^3 in volume), the mice received respective gemcitabine treatments via intraperitoneal (i.p.) injection. After weekly monitoring, time to appearance of the tumor was recorded, and the tumor volume was measured by caliper. The tumor volume was calculated as follows: volume=longest tumor diameter×(shortest tumor diameter) 2/2. After 35 days of treatment, the mice were euthanized by CO2 inhalation, and the tumor tissues were collected for further analyses. […] Initially, we tested whether tumors formed by WT and PRMT5 KO cells were differentially sensitive to Gem treatment. To be able to better compare the tumors from these two genetic backgrounds, we injected 5×10^5 WT mPanc96 cells in the left flank and the same number of the PRMT5 KO cells in the right flank of the same mouse. This strategy enabled us to compare the two tumors grown in the same mouse. After one week of tumor formation, the mice were randomly divided into three groups where one received control, and the other two received two separate Gem doses (50 mg/kg or 100 mg/kg).

Row | pIC50 ([6]; clones with even partial PRMT5 depletion (PRMT5 KO)) | pIC50 ([6]; wild-type (WT) clones) | SMILES | global SDMA [1] | apoptosis (caspase-3 cleavage) [2] | HDR activity [3] | NHEJ activity [4] | overall SDMA levels in tumors ([5]; Western blot of tumor tissues) | sensitivity to Gem in longer-term colony formation ([7]; PRMT5 KO clones compared to WT cells) | cell cycle position ([8]; PRMT5 KO cells compared to WT cells) | cell cycle position ([8]; WT cells, EPZ015666 500 nM) | phospho-Chk1, γ-H2AX and phospho-RPA2 activation [9] | time to strong γ-H2AX foci post Gem treatment ([10]; PRMT5 KO cells, Gem 250 nM) | time to similar levels of γ-H2AX foci ([10]; WT cells, same concentration of Gem) | γ-H2AX foci formation levels ([10]; over 72 hours, PRMT5 KO vs WT cells, Gem treatment) | comet tail length [11] | tumor volume ([12]; PRMT5 KO tumors) | tumor volume ([12]; WT tumors) | γ-H2AX staining (IHC) in tumors ([5]; PRMT5 KO tumors vs WT tumors treated with Gem) | γ-H2AX in tumors ([5]; Western blot, PRMT5 KO tumors) | growth inhibition activity on colony formation ([7]; single agent, compared with the other PRMT5 inhibitor)
1 |  |  | O=C(NC[C@H](O)CN1CCc2ccccc2C1)c1cc(NC2COC2)ncn1 [EPZ015666] | significantly inhibits global SDMA | significant apoptosis (caspase-3 cleavage) selectively in WT cells but not in PRMT KO cells | significantly inhibits the HDR activity | significant increase in NHEJ activity | lower overall levels of SDMA |  |  |  |  |  |  |  |  |  |  |  |  | 
2 | 5.30 to 5.40 | ~4.30 | Nc1ccn([C@@H]2O[C@H](CO)[C@@H](O)C2(F)F)c(=O)n1 [Gem, 2′,2′-difluoro 2′-deoxycytidine] |  |  | significantly inhibits the HDR activity | significant increase in NHEJ activity |  | significantly more sensitive | significantly higher number of G2/M cells | partial delay in cell cycle with a substantial accumulation of cells in S-phase and partial increases in G2/M cells | sustained and stronger | 4 h | 48 to 72 h | significantly higher levels of γ-H2AX | significantly longer comet tail | most significant reduction of tumor volumes | notable reduction of WT tumors | significantly more γ-H2AX staining | significantly activated | 
3 |  |  | CC(=O)N1CCC(Nc2cc(C(=O)NC[C@H](O)CN3CCc4ccccc4C3)ncn2)CC1 [EPZ015938] |  |  |  |  |  |  |  |  |  |  |  |  |  |  |  |  |  | substantially more growth inhibition activity
